Data set [1] addresses T1, Short transient receptor potential channel 5 (Homo sapiens, UniProt Q9UL62).
T1 sequence (Q9UL62 whole entry): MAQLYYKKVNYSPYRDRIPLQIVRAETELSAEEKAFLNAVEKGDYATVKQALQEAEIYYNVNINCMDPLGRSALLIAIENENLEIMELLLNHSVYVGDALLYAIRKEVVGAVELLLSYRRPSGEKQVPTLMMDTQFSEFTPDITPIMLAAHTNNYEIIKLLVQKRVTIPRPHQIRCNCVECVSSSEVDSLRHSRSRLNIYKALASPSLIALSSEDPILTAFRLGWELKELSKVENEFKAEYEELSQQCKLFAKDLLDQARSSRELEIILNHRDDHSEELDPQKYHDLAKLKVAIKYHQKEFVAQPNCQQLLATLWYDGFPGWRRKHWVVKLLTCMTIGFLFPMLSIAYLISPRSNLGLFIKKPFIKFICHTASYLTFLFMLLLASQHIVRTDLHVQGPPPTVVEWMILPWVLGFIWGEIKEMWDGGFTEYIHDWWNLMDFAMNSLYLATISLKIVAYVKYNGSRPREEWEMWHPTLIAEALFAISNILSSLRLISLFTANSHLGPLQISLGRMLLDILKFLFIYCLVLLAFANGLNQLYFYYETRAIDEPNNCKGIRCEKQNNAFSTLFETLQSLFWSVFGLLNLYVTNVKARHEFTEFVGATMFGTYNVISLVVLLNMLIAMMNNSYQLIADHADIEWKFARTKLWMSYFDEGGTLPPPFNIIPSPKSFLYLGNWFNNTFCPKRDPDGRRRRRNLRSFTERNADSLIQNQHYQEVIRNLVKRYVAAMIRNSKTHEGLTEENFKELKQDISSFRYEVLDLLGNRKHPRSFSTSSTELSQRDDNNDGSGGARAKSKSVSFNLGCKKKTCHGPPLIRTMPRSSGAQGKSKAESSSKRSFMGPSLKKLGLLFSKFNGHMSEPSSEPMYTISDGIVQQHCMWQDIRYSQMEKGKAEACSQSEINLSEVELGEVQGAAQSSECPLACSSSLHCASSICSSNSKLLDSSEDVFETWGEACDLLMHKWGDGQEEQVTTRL
The experiment in a line: Inhibition of TRPC5 channel (unknown origin) expressed in HEK293 cells assessed as inhibition of EA-evoked Ca2+ entry by measuring reduction in intracellular Ca2+ level by Fluo-4 dye based FLIPR assay. It counts as cell-based.

For data set [2], the target named is T2, Short transient receptor potential channel 3 (Homo sapiens) (UniProt Q13507).
T2 sequence (whole entry): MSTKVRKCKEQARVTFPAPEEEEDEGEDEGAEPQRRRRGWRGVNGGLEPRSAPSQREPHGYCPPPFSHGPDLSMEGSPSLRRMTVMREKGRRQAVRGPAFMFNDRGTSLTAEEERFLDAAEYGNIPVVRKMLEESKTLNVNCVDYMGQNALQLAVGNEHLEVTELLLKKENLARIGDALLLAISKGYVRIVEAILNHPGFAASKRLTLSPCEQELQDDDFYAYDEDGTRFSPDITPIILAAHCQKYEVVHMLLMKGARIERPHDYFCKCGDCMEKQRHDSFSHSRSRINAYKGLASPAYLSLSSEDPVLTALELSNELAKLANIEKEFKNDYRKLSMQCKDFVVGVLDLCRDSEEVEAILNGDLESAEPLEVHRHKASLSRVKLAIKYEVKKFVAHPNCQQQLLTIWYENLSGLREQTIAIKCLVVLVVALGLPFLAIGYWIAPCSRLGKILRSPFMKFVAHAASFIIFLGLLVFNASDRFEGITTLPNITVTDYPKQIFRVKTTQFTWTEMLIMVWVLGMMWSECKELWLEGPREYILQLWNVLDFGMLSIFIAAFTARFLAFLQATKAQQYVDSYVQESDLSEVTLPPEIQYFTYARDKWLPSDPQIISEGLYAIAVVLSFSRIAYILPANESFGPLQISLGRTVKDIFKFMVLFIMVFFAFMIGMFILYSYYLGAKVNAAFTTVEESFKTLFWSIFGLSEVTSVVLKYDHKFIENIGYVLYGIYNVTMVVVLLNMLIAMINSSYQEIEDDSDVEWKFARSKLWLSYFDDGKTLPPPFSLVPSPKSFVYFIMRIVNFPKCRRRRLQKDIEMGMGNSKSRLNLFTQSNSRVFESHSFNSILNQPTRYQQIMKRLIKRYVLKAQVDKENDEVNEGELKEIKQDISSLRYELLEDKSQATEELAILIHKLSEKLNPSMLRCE
The experiment in a line: Inhibition of human TRPC3 channel expressed in HEK293 cells assessed as inhibition of OAG-evoked Ca2+ entry by measuring reduction in intracellular Ca2+ level by Fluo-4 dye based FLIPR assay. The format is cell-based.

The target of data set [3] is T3, Short transient receptor potential channel 4 (Homo sapiens) (UniProt Q9UBN4).
T3 sequence (whole entry): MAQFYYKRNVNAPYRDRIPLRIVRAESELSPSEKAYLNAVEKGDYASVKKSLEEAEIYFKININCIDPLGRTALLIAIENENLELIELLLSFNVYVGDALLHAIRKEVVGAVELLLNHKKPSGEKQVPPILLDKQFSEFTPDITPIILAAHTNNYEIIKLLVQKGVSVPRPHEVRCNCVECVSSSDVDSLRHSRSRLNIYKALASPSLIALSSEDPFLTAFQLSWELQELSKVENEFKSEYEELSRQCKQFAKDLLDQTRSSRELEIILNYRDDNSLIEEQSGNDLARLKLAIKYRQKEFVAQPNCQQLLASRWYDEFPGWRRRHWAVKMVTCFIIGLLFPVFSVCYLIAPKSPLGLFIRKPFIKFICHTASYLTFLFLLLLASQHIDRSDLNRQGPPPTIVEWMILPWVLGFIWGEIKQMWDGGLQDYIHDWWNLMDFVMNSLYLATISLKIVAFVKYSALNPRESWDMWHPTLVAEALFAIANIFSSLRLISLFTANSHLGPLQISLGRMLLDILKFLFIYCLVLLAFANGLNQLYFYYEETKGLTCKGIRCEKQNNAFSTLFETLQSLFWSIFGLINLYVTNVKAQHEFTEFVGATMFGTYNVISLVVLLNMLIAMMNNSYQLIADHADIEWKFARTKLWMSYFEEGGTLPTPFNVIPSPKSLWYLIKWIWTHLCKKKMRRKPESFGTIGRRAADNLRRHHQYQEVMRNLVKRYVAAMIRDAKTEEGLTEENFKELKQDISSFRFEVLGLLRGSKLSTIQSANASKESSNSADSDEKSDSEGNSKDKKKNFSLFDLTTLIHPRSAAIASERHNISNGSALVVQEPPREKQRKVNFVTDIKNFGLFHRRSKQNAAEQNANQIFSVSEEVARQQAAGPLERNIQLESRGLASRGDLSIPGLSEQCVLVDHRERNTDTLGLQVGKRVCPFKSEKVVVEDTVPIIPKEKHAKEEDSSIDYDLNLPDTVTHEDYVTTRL
Briefly: (§1) Inhibition of TRPC4 channel (unknown origin) expressed in HEK293 cells assessed as inhibition of EA-evoked Ca2+ entry by measuring reduction in intracellular Ca2+ level by Fluo-4 dye based FLIPR assay. The format is cell-based. The conditions noted are these: DDE = dose-dependent effect.

Data set [4] deals with T4, Short transient receptor potential channel 4 (Homo sapiens, UniProt Q9UBN4).
T4 sequence (Q9UBN4 whole entry): T3 sequence (whole entry)
The description is as §1. The format is cell-based.

The target in data set [5] is T1, Short transient receptor potential channel 5. Briefly: Inhibition of human TRPC5 channel expressed in HEK293 cells assessed as inhibition of EA-evoked channel current measured at +80 mV by whole-cell voltage clamp assay. The format is cell-based.
The subject of a further data set is Hepatocyte. Briefly: Cytotoxicity against primary mouse hepatocytes assessed as reduction in cell viability at 1 to 10 uM by MTT assay. The format is toxicity, cell-based. To be noted: dose 1-10 µM. On the technique in general: Tetrazolium dyes change colour on reduction, which living cells bring about.
Data set [6] can be described thus: Cytotoxicity against mouse MPC5 cells assessed as reduction in cell viability at 1 to 10 uM by MTT assay. It counts as toxicity, cell-based. To be noted: mpc-5, 10 µM, dose 1-10 µM.
The next data set deals with MPC-5. Briefly: Reno-protectant activity against protamine sulfate-induced podocytes injury in mouse MPC5 cells assessed as reduction in PS-induced podocytes rearrangement and rupture of stress fibers at 0.1 to 3 uM pretreated for 30 mins followed by stimulation with PS for 100 mins. It counts as functional, cell-based. To be noted: dose 0.1-3 µM, time 130.0 min, DDE = dose-dependent effect.

Activity calls are given as the source filed them. The calls are words filed in the database; no cut-off is given here. Bounds are passed on as bounds.

This note sets out measurements from ChEMBL document CHEMBL5143583, “Discovery of pyrroledione analogs as potent transient receptor potential canonical channel 5 inhibitors” (Bioorg Med Chem Lett, 2022).

The term IC50 denotes the concentration at which inhibition is half-maximal. On to `O=C1NC(=O)C(N2CCc3c(ncnc3Oc3c(F)cccc3C(F)(F)F)C2)=C1Cl`, for which the IC50 in data set [1] worked out at 776 nM.
Still for that read-out and setting: next, `O=C1NC(=O)C(N2CCc3c(ncnc3Oc3ccc(F)cc3C3CCCC3)C2)=C1Cl`: more than 10000 nM; `Cn1ncc(N2CCN(Cc3ccccc3C(F)(F)F)C(=O)C2)c(Cl)c1=O`: more than 10000 nM.
Same read-out and setting: in the case of `N#Cc1cc(F)ccc1Oc1ncnc2c1CCN(C1=C(Cl)C(=O)NC1=O)C2` it was 664 nM; in that of `O=C(CC1CN(c2cn[nH]c(=O)c2Cl)C1)NCc1ccccc1C(F)(F)F`, more than 10000 nM.
Turning to `O=C1CN(c2cn[nH]c(=O)c2)CCN1Cc1ccccc1C(F)(F)F`, in data set [1], the concentration for half-maximal inhibition (IC50) was more than 10000 nM.
Same read-out and setting: in the case of `O=C1NC(=O)C(N2CCc3ncn(Cc4ccccc4C(F)(F)F)c3C2)=C1Cl` it was 860 nM.
On to `O=C1NC(=O)C(N2CCc3c(ncnc3Oc3ccc(C(F)(F)F)cc3)C2)=C1Cl`, for which the IC50 in data set [1] is more than 10000 nM.
On to `CCc1nc2c(c(Oc3ccc(F)cc3C(F)(F)F)n1)CCN(C1=C(Cl)C(=O)NC1=O)C2`, for which, in data set [1], the IC50 was determined as 798 nM.
Regarding `O=C1NC(=O)C(N2CCc3c(nc(C4CC4)nc3Oc3ccc(F)cc3C(F)(F)F)C2)=C1Cl`, the IC50 in data set [1] was 2080 nM.
On the same count and under the same terms, next, `CN(Cc1ccccc1C(F)(F)F)C(=O)C1CN(c2cn[nH]c(=O)c2Cl)C1`: more than 10000 nM; `O=C(NCc1ccccc1C(F)(F)F)C1CN(c2cn[nH]c(=O)c2Cl)C1`: more than 10000 nM; `C#Cc1cc(F)ccc1Oc1ncnc2c1CCN(C1=C(Cl)C(=O)NC1=O)C2`: 629 nM.
Turning to `O=C1NC(=O)C(N2CCc3c(ncnc3Oc3ccc(F)cc3C3CCC3)C2)=C1Cl`, in data set [1], the IC50 was more than 10000 nM.
Same read-out and setting: in the case of `O=C1NC(=O)C(N2CCc3c(ncnc3Oc3cccc(C(F)(F)F)c3)C2)=C1Cl` it was more than 10000 nM; in that of `CN(CC(=O)NCc1ccccc1C(F)(F)F)c1cn[nH]c(=O)c1Cl`, more than 10000 nM; in that of `O=C1NC(=O)C(N2CCc3c(ncnc3Oc3ccccc3C(F)(F)F)C2)=C1Cl`, 452 nM.
For `O=C1NC(=O)C(N2CCc3c(ncnc3Oc3ccc(F)cc3C(F)(F)F)C2)=C1Cl`, the IC50 in data set [1] amounted to 60 nM; in data set [4] it was 65 nM; in data set [5], 14.1 nM. Further, in data set [2], the inhibition entry was “Active”. Moreover, the inhibition result in data set [3] was “Dde”. The Activity result with Hepatocyte was “Non-Toxic”; in data set [6], “Non-Toxic”; with MPC-5, “Dde”.
With `O=C1NC(=O)C(N2CCc3c(ncnc3Oc3ccc(Cl)cc3C(F)(F)F)C2)=C1Cl`, the IC50 in data set [1] was 314 nM.
`O=C1NC(=O)C(N2CCc3c(ncnc3Oc3ccc(F)cc3Cl)C2)=C1Cl`: the IC50 in data set [1] worked out at 280 nM.
The same measure, in the same setting: next, `O=C1NC(=O)C(N2CCc3c(ncnc3Oc3ccccc3Cl)C2)=C1Cl`: 654 nM; `Cn1c(N2CCN(Cc3ccccc3C(F)(F)F)C(=O)C2)cc(=O)n(C)c1=O`: more than 10000 nM.
Consider `O=C1CN(c2cn[nH]c(=O)c2Cl)CN1Cc1ccccc1C(F)(F)F`, for which the IC50 in data set [1] is more than 10000 nM.
Consider `O=C1NC(=O)C(N2CCN(Cc3ccccc3C(F)(F)F)C(=O)C2)=C1Cl`, for which the IC50 in data set [1] turned out to be 10400 nM.
In the case of `Cc1nc2c(c(Oc3ccc(F)cc3C(F)(F)F)n1)CCN(C1=C(Cl)C(=O)NC1=O)C2`, in data set [1], the IC50 was found to be 125 nM.
On the same count and under the same terms, in the case of `Cc1cc(F)ccc1Oc1ncnc2c1CCN(C1=C(Cl)C(=O)NC1=O)C2` it was more than 10000 nM; in that of `O=C1NC(=O)C(N2CCc3c(cnn3Cc3ccccc3C(F)(F)F)C2)=C1Cl`, 955 nM; in that of `O=C1NC(=O)C(N2CCc3c(ncnc3Oc3ccc(F)cc3C3CC3)C2)=C1Cl`, 111 nM.
Still for that read-out and setting: in the case of `CCc1ccccc1Oc1ncnc2c1CCN(C1=C(Cl)C(=O)NC1=O)C2` it was 1070 nM.
With `O=C1CN(c2cn[nH]c(=O)c2Cl)CCN1Cc1ccccc1C(F)(F)F`, the IC50 in data set [1] came out at 211 nM; in data set [5] it was 50.1 nM. For the same compound, the values for the Activity result (in the data set on Hepatocyte; in data set [6]; in the data set with MPC-5) were “Non-Toxic”, “Non-Toxic” and “Dde”, respectively.
Regarding `Cn1c(N2CCN(Cc3ccccc3C(F)(F)F)C(=O)C2)cc(=O)[nH]c1=O`, in data set [1], the IC50 is more than 10000 nM.
Still for that read-out and setting: in the case of `O=C1CN(c2cc(=O)[nH]c(=O)[nH]2)CCN1Cc1ccccc1C(F)(F)F` it was more than 10000 nM.
Still for that read-out and setting: next, `O=C1CN(c2cc(=O)[nH]cn2)CCN1Cc1ccccc1C(F)(F)F`: more than 10000 nM; `O=C1NC(=O)C(N2CCc3c(ncnc3Oc3ccc(F)cc3CC(F)(F)F)C2)=C1Cl`: 2540 nM.
